Experimental data as given in the CheMixHub ionic liquid set.

Test: xn = mol fraction of the nth substance listed

CC(=O)[O-].CCOCCn1cc[n+](C)c1 + O
100 kPa
Conditions	electrical conductivity [S/m]	viscosity [mPa·s]
293.15 K, x1 = 0.9129	0.288	35.75
293.15 K, x1 = 0.9447	0.25	36.71
298.15 K, x1 = 0.9447	0.31	28.98
303.15 K, x1 = 0.9447	0.394	23.12
308.15 K, x1 = 0.8821	0.586	17.7
313.15 K, x1 = 0.8524	0.764	14.07
313.15 K, x1 = 0.8821	0.719	14.45
313.15 K, x1 = 1	0.568	15.8

CC(=O)[O-].COCCn1cc[n+](C)c1 + O
100 kPa
Conditions	electrical conductivity [S/m]	viscosity [mPa·s]
293.15 K, x1 = 0.8395	0.408	54.79
293.15 K, x1 = 0.8942	0.338	58.87
303.15 K, x1 = 0.8942	0.495	32.66
308.15 K, x1 = 0.8659	0.636	25.93
318.15 K, x1 = 0.8659	0.925	17.73

CCCCC(CC)COC(=O)CC(C(=O)OCC(CC)CCCC)S(=O)(=O)[O-].CCCC[n+]1ccn(C)c1 (centres undefined) + O
99.6 kPa, x1 = 0.8687
Conditions	viscosity [mPa·s]
293.15 K	3442
303.15 K	1454

CCCCCCCCCCCCCCCC[n+]1ccccc1.[Cl-] + O
Conditions	electrical conductivity [S/m]
293.15 K, 100 kPa, x1 = 3.6e-06	0.0028
293.15 K, 100 kPa, x1 = 7.21e-06	0.005
293.15 K, 100 kPa, x1 = 1.442e-05	0.0091
298.15 K, 100 kPa, x1 = 3.6e-06	0.0028
298.15 K, 100 kPa, x1 = 7.21e-06	0.0051
298.15 K, 100 kPa, x1 = 1.081e-05	0.0076
298.15 K, 100 kPa, x1 = 1.442e-05	0.0098
298.15 K, 100 kPa, x1 = 9.009e-05	0.02
303.15 K, 100 kPa, x1 = 3.6e-06	0.003
303.15 K, 100 kPa, x1 = 7.21e-06	0.0057
303.15 K, 100 kPa, x1 = 1.081e-05	0.0083
303.15 K, 100 kPa, x1 = 9.009e-05	0.021
308.15 K, 100 kPa, x1 = 3.6e-06	0.0034
308.15 K, 100 kPa, x1 = 7.21e-06	0.0065
308.15 K, 100 kPa, x1 = 1.081e-05	0.0095
308.15 K, 101 kPa, x1 = 5.4e-07	0.000222
308.15 K, 101 kPa, x1 = 9e-07	0.00029
308.15 K, 101 kPa, x1 = 1.62e-06	0.0004
308.15 K, 101 kPa, x1 = 2.34e-06	0.000465
308.15 K, 101 kPa, x1 = 2.88e-06	0.000581
308.15 K, 101 kPa, x1 = 3.78e-06	0.000705
308.15 K, 101 kPa, x1 = 4.5e-06	0.000794
308.15 K, 101 kPa, x1 = 5.59e-06	0.000937
308.15 K, 101 kPa, x1 = 6.85e-06	0.00106
308.15 K, 101 kPa, x1 = 7.93e-06	0.001222
308.15 K, 101 kPa, x1 = 9.01e-06	0.001438
308.15 K, 101 kPa, x1 = 1.009e-05	0.00159
308.15 K, 101 kPa, x1 = 1.117e-05	0.001701
308.15 K, 101 kPa, x1 = 1.333e-05	0.00209
308.15 K, 101 kPa, x1 = 1.55e-05	0.00219
308.15 K, 101 kPa, x1 = 1.766e-05	0.00237
308.15 K, 101 kPa, x1 = 1.982e-05	0.00248
308.15 K, 101 kPa, x1 = 2.18e-05	0.00259
308.15 K, 101 kPa, x1 = 2.397e-05	0.00264
308.15 K, 101 kPa, x1 = 2.595e-05	0.00278
308.15 K, 101 kPa, x1 = 3.009e-05	0.00297
308.15 K, 101 kPa, x1 = 3.406e-05	0.00314
308.15 K, 101 kPa, x1 = 3.802e-05	0.00328
308.15 K, 101 kPa, x1 = 4.18e-05	0.00342
308.15 K, 101 kPa, x1 = 4.559e-05	0.00356
308.15 K, 101 kPa, x1 = 4.919e-05	0.00369
308.15 K, 101 kPa, x1 = 5.099e-05	0.00375
308.15 K, 101 kPa, x1 = 6e-05	0.00403
308.15 K, 101 kPa, x1 = 6.847e-05	0.00432
308.15 K, 101 kPa, x1 = 7.658e-05	0.00454
308.15 K, 101 kPa, x1 = 8.433e-05	0.00477
308.15 K, 101 kPa, x1 = 9.189e-05	0.00497
308.15 K, 101 kPa, x1 = 9.91e-05	0.00516
308.15 K, 101 kPa, x1 = 0.000106	0.00533
308.15 K, 101 kPa, x1 = 0.0001126	0.0055
313.15 K, 100 kPa, x1 = 9.009e-05	0.023
